Measured values taken from US12011422B2, “Synthetic antibacterial compounds and uses thereof” (priority 2021, dated 2024).
≈ marks a conversion by molar mass, not a printed value.

Key:
a strain of S. aureus = assay: MIC determination (CLSI broth microdilution) against S. aureus; format: cell-based, Staphylococcus aureus; settings: 37° C., lowest concentration showing <10% bacterial growth; for MIC: Staphylococcus aureus, 18 h, read-out: Staph MIC; for Staph MIC: 18 hours
Method: (§1) The protocol for MIC determination is based on the Clinical & Laboratory Standards Institute (CLSI) guidelines. MICs are determined by setting up 96-well microtiter plates with serially diluted concentrations in DMSO or water ranging from 0-256 μg/mL for each compound of the invention (e.g., 256 μg/mL, 128 μg/mL, 64 μg/mL, 32 μg/mL, 16 μg/mL, 8 μg/mL, 4 μg/mL, 2 μg/mL, 1 μg/mL, etc.). The total volume in each plate is about 200 μL, with 2 μL of each serial dilution added to each well. Clinical isolates of various bacteria are obtained from the American Type Culture Collection (ATCC) and colony-resuspended for MIC testing as per CLSI guidelines. Plates are incubated at 37° C. for 18 hours, and optical density is read on a Tecan M1000 Infinite Pro plate reader at 600 nm. At least 3 replicates are done for each query compound. The MIC for each compound is the lowest compound concentration showing <10% bacterial growth.
(§2) The protocol as described in Example 2 was used to determine the minimal inhibitory concentration (MIC) of each of the following compounds against a strain of S. aureus and Pore-TolC E. coli.

Pore-TolC E. coli = assay: MIC determination (CLSI broth microdilution) against Pore-TolC E. coli; format: cell-based, Escherichia coli; settings: for Pore-TolC E. coli MIC: 37° C., 18 hours, lowest concentration showing <10% bacterial growth; for MIC: Escherichia coli, 18 h, read-out: Pore-TolC E. coli MIC, Pore-TolC E. coli, 37° C., lowest concentration showing <10% bacterial growth
Method: as §1, §2

E. coli = assay: Checkerboard broth microdilution (FICI) in combination with Colistin against E. coli; format: cell-based, Escherichia coli; settings: combined with Colistin (0-0.5 μg/mL) against E. coli; compound 0-32 μg/mL; FICI <= 0.5 is synergy
Description: In some embodiments, a compound of the invention and another antibacterial agent are synergistic. In some embodiments, a fractional inhibitory concentration (FIC) index calculation (shown below) is used to show synergy of a compound of the invention and another antibacterial agent.
FICother antibacterial agent=[other antibacterial agent]/MICother antibacterial agent, where [other antibacterial agent] is the lowest inhibitory concentration of the other antibacterial agent in the presence of a compound of the invention.
The FIC index (FICI) is the sum of the FICcompound of the invention and FICother antibacterial agent. Drug-Drug interactions having an FICI of less than or equal to 0.5 are deemed synergistic. In some embodiments, a compound of the invention and another antibacterial agent have a FICI of about 0.5, about 0.4, about 0.3, about 0.2, about 0.1 or about 0. […]
The effect of another antibacterial agent on the activity of the compounds of the invention is evaluated. […] Fractional inhibitory concentration indices (FICIs) are determined by setting up standard checkerboard broth microdilution assays in 96-well microtiter plates with serially diluted 8 (or 10) concentrations of each drug (disclosed compounds and the other antibacterial agent). […] Plates are incubated at 37° C. for 18 hours, and optical density is read on a Tecan M1000 Infinite Pro plate reader at 600 nm. […]

Compound	MIC (a strain of S. aureus) [µg/mL]	Pore-TolC E. coli MIC (Pore-TolC E. coli) [µg/mL]	MIC (Pore-TolC E. coli) [µg/mL]	FICI (E. coli)	Staph MIC (a strain of S. aureus) [µg/mL]
CC(C)=CCC/C(C)=C/Cc1c(O)cc(-c2cncnc2)cc1O [MLAP-1913]	8 (≈ 24.7 µM)	2			
CC(C)=CCC/C(C)=C/Cc1c(O)cc(C)cc1O [MLEB-1850]	8 (≈ 30.7 µM)		2 (≈ 7.68 µM)	< 0.5	
CC(C)=CCC/C(C)=C/Cc1c(O)cccc1O [MLEB-1864]	4 (≈ 16.2 µM)		1 (≈ 4.06 µM)		
CC(C)=CCC/C(C)=C/Cc1c(O)cc(Br)cc1O [MLEB-1917]	4 (≈ 12.3 µM)	0.5		< 0.375	
CC(=O)c1ccc(-c2cc(O)c(C/C=C(\C)CCC=C(C)C)c(O)c2)cc1 [MLEB-1996]	32 (≈ 87.8 µM)		> 32		
CC(C)=CCC/C(C)=C/Cc1c(O)cc(-c2cccc(C)c2C)cc1O [MLEB-1997]	2 (≈ 5.71 µM)		1 (≈ 2.85 µM)		
CC(C)=CCC/C(C)=C/Cc1c(O)cc(-c2ccc(C)cc2)cc1O [MLEB-1998]	4 (≈ 11.9 µM)		1 (≈ 2.97 µM)		
CC(C)=CCC/C(C)=C/Cc1c(O)cc(-c2ccc(C(F)(F)F)cc2)cc1O [MLEB-1999]	1 (≈ 2.56 µM)		2 (≈ 5.12 µM)		
CC(C)=CCC/C(C)=C/Cc1c(O)cc(-c2ccc(Cl)cc2)cc1O [MLEB-19100]	2 (≈ 5.6 µM)		2 (≈ 5.6 µM)		
CC(C)=CCC/C(C)=C/Cc1c(O)cc(-c2cccc(C(F)(F)F)c2)cc1O [MLEB-19101]		1			2
CC(C)=CCC/C(C)=C/Cc1c(O)cc(-c2cc(C(F)(F)F)ccc2F)cc1O [MLEB-19102]	2 (≈ 4.9 µM)		2 (≈ 4.9 µM)		
CC(C)=CCC/C(C)=C/Cc1c(O)cc(-c2cccc(C=O)c2)cc1O [MLEB-19108]	8 (≈ 22.8 µM)				
CC(C)=CCC/C(C)=C/Cc1c(O)cc(-c2cnc3ccccc3c2)cc1O [MLEB-19109]	32 (≈ 85.7 µM)		32 (≈ 85.7 µM)		
CC(C)=CCC/C(C)=C/Cc1c(O)cc(-c2ccc(C=O)cc2)cc1O [MLEB-19110]	8 (≈ 22.8 µM)				
CC(C)=CCC/C(C)=C/Cc1c(O)cc(-c2cccc(C(F)(F)F)c2)cc1O [MLEB-19112]	1 (≈ 2.56 µM)		1 (≈ 2.56 µM)		
CC(C)=CCC/C(C)=C/Cc1c(O)cc(-c2c(F)cccc2F)cc1O [MLEB-19114]	1 (≈ 2.79 µM)		0.5 (≈ 1.39 µM)		
CC(C)=CCC/C(C)=C/Cc1c(O)cc(-c2cccc(O)c2)cc1O [MLEB-19115]	4 (≈ 11.8 µM)		2 (≈ 5.91 µM)		
CC(C)=CCC/C(C)=C/Cc1c(O)cc(Br)cc1O [MLEB-19116]		4			8
CC(C)=CCC/C(C)=C/Cc1c(O)cc(-c2cnc(N)cn2)cc1O [MLEB-19117]	4 (≈ 11.8 µM)				
CC(C)=CCC/C(C)=C/Cc1c(O)cc(-c2cc(C(F)(F)F)cc(C(F)(F)F)c2)cc1O [MLEB-19118]	1 (≈ 2.18 µM)		8 (≈ 17.5 µM)		

Compound	MIC (a strain of S. aureus) [µg/mL]	Pore-TolC E. coli MIC (Pore-TolC E. coli) [µg/mL]	MIC (Pore-TolC E. coli) [µg/mL]	FICI (E. coli)	Staph MIC (a strain of S. aureus) [µg/mL]
CC(C)=CCC/C(C)=C/Cc1c(O)cc(-c2c(C)noc2C)cc1O [MLEB-19120]	2 (≈ 5.86 µM)				
CC(C)=CCC/C(C)=C/Cc1c(O)cc(-c2ccccc2Cl)cc1O [MLEB-19121]	0.5 (≈ 1.4 µM)				
CC(C)=CCC/C(C)=C/Cc1c(O)cc(-c2ccncc2)cc1O [MLEB-19128]	4 (≈ 12.4 µM)		2 (≈ 6.18 µM)		
CC(C)=CCC/C(C)=C/Cc1c(O)cc(-c2cncnc2)cc1O [MLEB-19129]		8			16
CC(C)=CCC/C(C)=C/Cc1c(O)cc(-c2ccc(F)nc2)cc1O [MLEB-19130]	2 (≈ 5.86 µM)		2 (≈ 5.86 µM)		
CC(C)=CCC/C(C)=C/Cc1c(O)cc(-c2ccc(C=O)cc2F)cc1O [MLEB-19131]	2 (≈ 5.43 µM)		2 (≈ 5.43 µM)		
CC(C)=CCC/C(C)=C/Cc1c(O)cc(-c2cccc(Cl)c2)cc1O [MLEB-19132]	1 (≈ 2.8 µM)		1 (≈ 2.8 µM)		
CC(C)=CCC/C(C)=C/Cc1c(O)cc(-c2cnccc2Cl)cc1O [MLEB-19133]	4 (≈ 11.2 µM)		2 (≈ 5.59 µM)		
CC(C)=CCC/C(C)=C/Cc1c(O)cc(-c2cccc([N+](=O)[O-])c2)cc1O [MLEB-19134]	1 (≈ 2.72 µM)		1 (≈ 2.72 µM)		
CC(C)=CCC/C(C)=C/Cc1c(O)cc(-c2ccnc(Cl)c2)cc1O [MLEB-19135]	4 (≈ 11.2 µM)		1 (≈ 2.79 µM)		
CC(C)=CCC/C(C)=C/Cc1c(O)cc(-c2ccc(C#N)cc2)cc1O [MLEB-19136]	4 (≈ 11.5 µM)		2 (≈ 5.76 µM)		
CC(C)=CCC/C(C)=C/Cc1c(O)cc(-c2cccnc2Cl)cc1O [MLEB-19137]	1 (≈ 2.79 µM)		1 (≈ 2.79 µM)		
COc1ccc(-c2cc(O)c(C/C=C(\C)CCC=C(C)C)c(O)c2)cn1 [MLEB-19138]	16 (≈ 45.3 µM)				
CC(C)=CCC/C(C)=C/Cc1c(O)cc(-c2cnc(Cl)nc2)cc1O [MLEB-19139]	16 (≈ 44.6 µM)		4 (≈ 11.1 µM)		
CC(C)=CCC/C(C)=C/Cc1c(O)cc(-c2ccc(C=O)o2)cc1O [MLEB-19161]	4 (≈ 11.8 µM)		4 (≈ 11.8 µM)		
CC(C)=CCC/C(C)=C/Cc1c(O)cc(-c2ccc(C#N)s2)cc1O [MLEB-19162]	2 (≈ 5.66 µM)		4 (≈ 11.3 µM)		
COc1ccc(-c2cc(O)c(C/C=C(\C)CCC=C(C)C)c(O)c2)cc1 [MLEB-19163]	4 (≈ 11.3 µM)		2 (≈ 5.67 µM)		
CC(C)=CCC/C(C)=C/Cc1c(O)cc(-c2ccc(C=O)c(F)c2)cc1O [MLEB-19164]	2 (≈ 5.43 µM)		4 (≈ 10.9 µM)		
CC(C)=CCC/C(C)=C/Cc1c(O)cc(-c2ccc([N+](=O)[O-])cc2)cc1O [MLEB-19165]	2 (≈ 5.44 µM)		1 (≈ 2.72 µM)		
